This note sets out measurements from the METLIN SMRT retention time set (Domingo-Almenara et al. 2019).

A short description of the data set: gradient 5% acetonitrile 3 min, to 50% in 2 min, to 85% in 15 min, held 3 min, 100 µL/min. Particulars: column: Zorbax Extend-C18 2.1 x 50 mm; eluents: water / acetonitrile, 0.1% formic acid. In outline:
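Standards, all pure, were combined into mixtures of ~100 molecules and run at 100 μL/min on a Zorbax Extend-C18 column (2.1 × 50 mm, 1.8 μm) with water and acetonitrile, each containing 0.1% formic acid. A coupled quadrupole time-of-flight mass spectrometer operated in positive and negative ionization mode. Retention time values come from computationally picked adduct peaks, each inspected manually.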
Compound `CCSc1nnc(-c2nn(C)c3c2CN(S(=O)(=O)CC)CC3)n1CC` had an RP-LC retention time of 750 s.

`Cc1nc2ccccc2c(=O)n1-c1ccc(NC(=O)C2CCN(S(=O)(=O)N3CCCC3)CC2)cc1` yielded an RP-LC retention time of 778 s.

In turn, `O=c1ccc(S(=O)(=O)N2CCOCC2)cn1Cc1ccc(F)cc1` gave an RP-LC retention time of 759 s.

Take `Cc1cc2[nH]c(C(=O)Nc3ccc(Cl)cc3C)c(CN3CCOCC3)c2s1`: the RP-LC retention time stood at 738 s.

With `CC(C)NCc1ccc(-c2cc(Cl)ccc2Cl)o1`, the RP-LC retention time stood at 709 s.

Turning to `CNC(=O)C1CCN(C(=O)Nc2ccc(NC(=O)Nc3ccc(C)cc3C)cc2)CC1`, the RP-LC retention time was 673 s.

The compound `O=C(CCCc1nc2cccnc2n1Cc1ccccc1)N1CCN(c2ncccn2)CC1` gave an RP-LC retention time of 563 s.

In turn, `COc1ccc(-c2cn3cccnc3n2)cc1NC(=O)c1cc(OC)c(OC)c(OC)c1` had an RP-LC retention time of 643 s.

On to `O=C(CN1C(=O)C2CCCCN2c2ccc(S(=O)(=O)N3CCCC3)cc21)NCCc1ccccc1` (stereo not drawn), for which the RP-LC retention time was found to be 966 s.

In the case of `O=C(NCc1cc(F)cc(F)c1)C1CCN(c2cc(N3CCSCC3)ncn2)CC1`, the RP-LC retention time stood at 679 s.

Turning to `Cc1ccc(NS(=O)(=O)c2cc3n(c2)CCN(C)C3=O)cc1C`, the RP-LC retention time amounted to 722 s.

On to `CN(C)C(=O)c1cc2c(s1)CCC(C(=O)N1CCN(Cc3ccccc3)CC1)C2` (stereo not drawn), for which the RP-LC retention time was found to be 556 s.

With `CCOC(=O)Cn1c(C2CC(=O)N(c3cc(Cl)ccc3OC)C2)nc2ccccc21` (stereo not drawn), the RP-LC retention time was determined as 778 s.

On to `COC(=O)c1ccc(-c2nc3cnccn3c2NC2CCCCC2)cc1`, for which the RP-LC retention time amounted to 973 s.

With `Cn1cnnc1SCC(=O)N1CCc2ccccc21`, the RP-LC retention time came out at 604 s.

On to `CCCCOC(=O)c1[nH]c2c(c1C)C(=O)CC(c1cc(OC)c(OC)c(OC)c1)C2` (stereo not drawn), for which the RP-LC retention time was 1020 s.

In turn, `CC(C)Cc1nc2nccc(-c3ccccc3)n2n1` came in with an RP-LC retention time of 877 s.

In the case of `O=S(=O)(c1cccnc1)N1CCC(c2ccccc2)C1` (stereo not drawn), the RP-LC retention time was found to be 773 s.

Consider `CC(C)CCNC(=O)CN1C(=O)CCCc2cc(S(=O)(=O)N3CCC(C)CC3)ccc21`, for which the RP-LC retention time stood at 938 s.

The compound `Cc1nnc(-c2coc(S(=O)(=O)N3CCC(N4CCCCC4)CC3)c2)o1` came in with an RP-LC retention time of 615 s.

The compound `Cn1cc(CN2CCC(C(=O)N3CCN(c4ccccc4F)CC3)CC2)c2cc(Cl)ccc21` returned an RP-LC retention time of 794 s.

As for `CCc1ccc(NC(=O)C2CCN(S(=O)(=O)c3ccc4c(c3)sc(=O)n4CC)CC2)cc1`, the RP-LC retention time was 953 s.

On to `O=C(Cc1ccccc1)NCc1nc(-c2ccc3oc(-c4ccccc4)nc3c2)no1`, for which the RP-LC retention time amounted to 997 s.

The compound `O=C(CCCc1c[nH]c2ccccc12)N1CCN2CCS(=O)(=O)N(C3CC3)C(=O)C2C1` (stereo not drawn) registered an RP-LC retention time of 824 s.

As for `Cc1ccc(-c2ncc(NC(=O)C3CCC3)cn2)cc1`, the RP-LC retention time was found to be 941 s.

In turn, `CNc1ncn(-c2c(C)cccc2C)c(=O)n1` returned an RP-LC retention time of 684 s.

On to `O=C(CCSCc1cnn(-c2ccccc2)c1-n1cccc1)N1CCN(c2ccccn2)CC1`, for which the RP-LC retention time stood at 707 s.

Take `c1cc2c(cc1-c1noc(C3CCC3)n1)ncn2CCN1CCCC1`: the RP-LC retention time amounted to 596 s.

For the compound `CCn1ccc2c(cc(C(=O)Nc3cc(C)c(Cl)cc3OC)n2C)c1=O`, the RP-LC retention time was found to be 933 s.

Consider `O=C(Cn1nc2ccc(-c3ccc(Cl)cc3)nn2c1=O)N1CCN(c2ccc(F)cc2)CC1`, for which the RP-LC retention time is 876 s.

Consider `O=C(c1nnc(-c2ccc(S(=O)(=O)N3CCOCC3)cc2)o1)N1CCc2ccccc2C1`, for which the RP-LC retention time came to 917 s.

`CCCNC(=O)C1CCCN(c2ccc(SCC(=O)Nc3ccc(C)cc3C)nn2)C1` (stereo not drawn) gave an RP-LC retention time of 733 s.

Compound `CNc1nc(NC(C)C)nc(-n2cnc(SC)n2)n1` showed an RP-LC retention time of 722 s.
